Data on 53 molecules can be found in patent US20240132513A1, “BENZAZEPINE DERIVATIVES, COMPOSITIONS, AND METHODS FOR TREATING COGNITIVE IMPAIRMENT” (AGENEBIO, INC., priority 2022, published 2024).

As usually defined, the Ki is the equilibrium dissociation constant of an inhibitor or competing ligand from its target. The low end stands for a stronger hold on the target, the high end for a looser hold on the target.

Where two headings read alike, the source gives them in different places.

For this assay, the target named is α5β3γ2 GABAA R (Homo sapiens, UniProt P18507+P31644). The assay can be described thus: Binding activity on GABAA R: inhibition of [3H]Ro15-1788 binding, α5 containing receptor. How it is done: Tissue culture and Membrane Preparation: The binding was performed on Ltk cells stably expressing GABAA R: […], α2β3γ2, α3β3γ2 and α5β3γ2 (provided by Merck Co., NJ, USA). Cells were seeded in 100 mm culture plates in DMEM/F12 medium containing 10% serum and antibiotics in 5% CO2 and allowed to grow for 1-2 days. GABAAR expression was then induced by dexamethasone as follows: 0.5 μM for 1 day for α5 containing and 2 μM for 3 days for α1, α2 and α3 containing GABAARs. After induction, cells were collected by scraping into Dulbecco's Phosphate buffered saline (DPBS, pH 7.4, Invitrogen, Carlsbad, CA, USA) and centrifuged at 150×g for 10 min. The pellet was washed twice by re-suspension and centrifugation. The cell pellets from at least 5 different preps were combined, suspended in the binding assay buffer (50 mM KH2PO4; 1 mM EDTA; 0.2 M KCl, pH 7.4) and membranes prepared by sonication (3-5 times, 30 sec) using Branson Sonifier 150 (G. Heinmann, Germany). Protein content was determined using BCA assay (Bio-Rad Labs, Reinach, Switzerland) with Bovine Serum Albumin (Sigma Aldrich, St. Louis, MO, USA) as the standard. Aliquots were prepared and stored at −20° C. for further use in binding assays.
Ligand Binding: Saturation binding curves were obtained by incubating membranes with increasing concentrations (0.01-8 nM) of [^3H]Rol5-1788 (Flumazepil, 75-85 Ci/mmol, PerkinElmer, MA, USA), with nonspecific binding measured in the presence of 10 μM diazepam.
All binding assays were performed for 1 h at 4° C. in assay buffer. The total assay volume was 0.5 ml containing 0.2 mg/ml protein for α5 and 0.4 mg/ml for α1, α2, and α3 containing GABAAR membranes. Incubations were terminated by filtration through GF/B filters using a 24-Cell Harvestor (Brandel, Gaithersburg, MD, USA) followed by 3 washes with ice-cold assay buffer. Filters were transferred to scintillation vials, 5 ml scintillation liquid added, vortex-mixed and kept in dark. Next day, radioactivity was obtained using a scintillation counter (Beckman Coulter, Brea, CA, USA). All assays were performed in triplicate.
Data Analyses: Saturation and inhibition curves were obtained using GraphPad Prism software (GraphPad Software, Inc., CA, USA).

Where [1] appears, read: ranges of the column heads, [3H]Ro15-1788, Ltk cell membranes.

α5β3γ2 GABAA R, sequence (P31644 32-462): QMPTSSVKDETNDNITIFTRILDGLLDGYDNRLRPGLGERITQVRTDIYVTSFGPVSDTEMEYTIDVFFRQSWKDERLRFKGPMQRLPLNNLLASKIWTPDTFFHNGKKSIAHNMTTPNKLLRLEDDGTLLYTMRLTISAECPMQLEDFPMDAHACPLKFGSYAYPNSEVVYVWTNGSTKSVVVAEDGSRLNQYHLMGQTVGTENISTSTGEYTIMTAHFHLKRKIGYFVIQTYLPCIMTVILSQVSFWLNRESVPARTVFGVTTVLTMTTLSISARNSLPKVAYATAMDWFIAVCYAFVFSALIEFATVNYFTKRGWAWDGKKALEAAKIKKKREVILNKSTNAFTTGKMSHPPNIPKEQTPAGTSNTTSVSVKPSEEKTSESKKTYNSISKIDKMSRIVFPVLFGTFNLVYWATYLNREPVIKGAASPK
α5β3γ2 GABAA R, sequence (P28472 26-473 partner): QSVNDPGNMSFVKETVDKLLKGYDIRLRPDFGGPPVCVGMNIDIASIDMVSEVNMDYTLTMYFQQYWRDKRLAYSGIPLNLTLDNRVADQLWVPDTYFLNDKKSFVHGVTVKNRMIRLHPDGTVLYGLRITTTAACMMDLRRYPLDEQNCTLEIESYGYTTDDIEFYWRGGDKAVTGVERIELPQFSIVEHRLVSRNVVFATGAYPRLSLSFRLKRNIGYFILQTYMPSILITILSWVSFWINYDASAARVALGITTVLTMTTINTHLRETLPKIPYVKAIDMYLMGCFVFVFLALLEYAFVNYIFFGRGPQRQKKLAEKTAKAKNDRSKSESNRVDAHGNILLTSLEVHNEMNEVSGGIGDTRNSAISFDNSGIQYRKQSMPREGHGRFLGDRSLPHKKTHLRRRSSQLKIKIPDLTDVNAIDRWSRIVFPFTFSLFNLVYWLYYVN
α5β3γ2 GABAA R, sequence (P18507 40-475): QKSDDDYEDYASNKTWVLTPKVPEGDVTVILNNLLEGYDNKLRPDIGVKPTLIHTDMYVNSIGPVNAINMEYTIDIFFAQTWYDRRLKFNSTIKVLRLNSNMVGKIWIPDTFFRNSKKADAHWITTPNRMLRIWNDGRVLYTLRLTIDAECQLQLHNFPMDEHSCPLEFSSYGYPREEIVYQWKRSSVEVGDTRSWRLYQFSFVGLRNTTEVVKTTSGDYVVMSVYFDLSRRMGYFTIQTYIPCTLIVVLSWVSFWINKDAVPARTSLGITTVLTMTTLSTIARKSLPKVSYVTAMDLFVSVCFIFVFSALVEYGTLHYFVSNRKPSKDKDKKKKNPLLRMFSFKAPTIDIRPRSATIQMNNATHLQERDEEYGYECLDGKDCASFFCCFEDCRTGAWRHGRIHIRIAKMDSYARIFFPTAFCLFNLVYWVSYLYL

The molecule `COc1ccc2c(c1)-c1oncc1Cc1c(-c3nc(CC(C)C)no3)ncn1-2` [Compound 67] returned a Ki under setting [1] above 1000 nM.
`CCOC1(c2nc(-c3ncn4c3Cc3cn(C)nc3-c3cc(OC)ccc3-4)no2)CC1` [Compound 357] returned a Ki below 100 nM.
`Cc1ccc(-c2noc(C)c2COc2ccc(C(=O)NC3CCOCC3)nn2)cn1` [Compound 238] came in with a Ki under setting [1] below 100 nM.
`COc1ccc2c(c1)-c1nn(C)cc1Cc1c(-c3noc(C4(O)CC4)n3)ncn1-2` [Compound 363] had a Ki under setting [1] below 100 nM.
In turn, `COCC(C)(C)c1nc(-c2ncn3c2Cc2cn(C)nc2-c2cc(OC)ccc2-3)no1` [Compound 377] registered a Ki below 100 nM.
Still for that read-out and setting: in the case of `COc1ccc2c(c1)-c1nn(C)cc1Cc1c(-c3noc(C(C)(C)CO)n3)ncn1-2` [Compound 376] it was below 100 nM; in that of `COc1ccc2c(c1)-c1nn(C)cc1Cc1c(-c3noc(CN4CCCC4=O)n3)ncn1-2` [Compound 368], 100 to 1000 nM; in that of `COC(C)(C)c1noc(-c2ncn3c2Cc2cn(CC4CCOC4)nc2-c2cc(Cl)ccc2-3)n1` (centres unmarked) [Compound 367], below 100 nM.
In turn, `CN(C)Cc1noc(-c2ncn3c2Cc2cn(C)nc2-c2cc(Cl)ccc2-3)n1` [Compound 240] gave a Ki below 100 nM.
On the same count and under the same terms, in the case of `COc1ccc2c(c1)-c1nn(C)cc1Cc1c(-c3noc(C4(O)CCCC4)n3)ncn1-2` [Compound 384] it was below 100 nM; in that of `COc1cccc(Cn2cc(-c3ncn4c3Cc3cn(CC5CCCO5)nc3-c3cc(Cl)ccc3-4)cn2)n1` (centres unmarked) [Compound 337], below 100 nM; in that of `Cc1noc(-c2ncn3c2Cc2cnn(C)c2-c2cc(Cl)ccc2-3)n1` [Compound 3], below 100 nM.
Same read-out and setting: as for `CCn1cc2c(n1)-c1cc(Cl)ccc1-n1cnc(-c3noc(CN(C)C)n3)c1C2` [Compound 349], the figure is below 100 nM; as for `Cn1cc2c(n1)-c1cc(Cl)ccc1-n1cnc(-c3noc(CCN4CCCC4)n3)c1C2` [Compound 385], below 100 nM; as for `COc1ccc2c(c1)-c1nn(C)cc1Cc1c(-c3noc(C4(OC)CCOC4)n3)ncn1-2` (centres unmarked) [Compound 354], below 100 nM.
The molecule `COc1ccc2c(c1)-c1nn(CCOC(F)(F)F)cc1Cc1c(-c3noc(C4(OC)CC4)n3)ncn1-2` [Compound 330] yielded a Ki below 100 nM.
Turning to `Cc1noc(-c2cnc3n2CC(=O)N(C)c2cc(Cl)ccc2-3)n1` [Compound 32], under setting [1], the Ki is above 1000 nM.
Take `CC(C)c1noc(-c2ncn3c2Cc2cn(C4CCOC4)nc2-c2cc(Cl)ccc2-3)n1` (centres unmarked) [Compound 199]: the Ki is below 100 nM.
`CCOC(=O)c1ncn2c1Cc1cnoc1-c1cc(OC)ccc1-2` [Compound 40] gave a Ki under setting [1] below 100 nM.
For the molecule `COc1ccc2c(c1)-c1nn(C)cc1Cc1c(-c3nc(CN(C(C)C)C(C)C)co3)ncn1-2` [Compound 380], the Ki is below 100 nM.
Consider `Clc1ccc2c(c1)-c1c(cnn1Cc1ccccc1)Cc1c(C3=N[C@@H](c4ccccc4)CO3)ncn1-2` [Compound 6], for which, under setting [1], the Ki was above 1000 nM.
`COc1cccc(Cn2cc(-c3ncn4c3Cc3cn(C5CCOC5)nc3-c3cc(Cl)ccc3-4)cn2)n1` (centres unmarked) [Compound 338]: the Ki is below 100 nM.
Same read-out and setting: in the case of `Cn1cc2c(n1)-c1cc(Cl)ccc1-n1cnc(-c3noc(Cn4cccc4)n3)c1C2` [Compound 371] it was below 100 nM.
The molecule `COc1ccc2c(c1)-c1nn(Cc3cccc(F)c3)cc1Cc1c(-c3nc(C)no3)ncn1-2` [Compound 22] gave a Ki below 100 nM.
For `COc1ccc2c(c1)-c1c(cnn1C)Cc1c(-c3nc(C(C)(C)C)no3)ncn1-2` [Compound 19], the Ki under setting [1] is above 1000 nM.
Same read-out and setting: in the case of `COCCc1nc(-c2ncn3c2Cc2cn(C)nc2-c2cc(OC)ccc2-3)no1` [Compound 342] it was below 100 nM.
In turn, `COc1ccc2c(c1)-c1c(cnn1CC1CC1)Cc1c(-c3nc(C(F)(F)F)no3)ncn1-2` [Compound 117] gave a Ki below 100 nM.
`COc1ccc2c(c1)-c1nn(C)cc1Cc1c(-c3noc(CN4CCCC4)n3)ncn1-2` [Compound 347]: the Ki was below 100 nM.
The molecule `COc1ccc2c(c1)-c1c(cnn1C)Cc1c(-c3nc(C)no3)ncn1-2` [Compound 18] yielded a Ki under setting [1] of 100 to 1000 nM.
In turn, `COc1ccc2c(c1)-c1[nH]ncc1Cc1c(-c3noc(C(C)C)n3)ncn1-2` [Compound 54] came in with a Ki below 100 nM.
Same read-out and setting: as for `COc1ccc2c(c1)-c1[nH]ncc1Cc1c(-c3cc(C(F)(F)F)nn3C)ncn1-2` [Compound 79], the figure is 100 to 1000 nM; as for `COc1ccc2c(c1)-c1[nH]ncc1Cc1c(C3=N[C@@H](c4ccccc4)CO3)ncn1-2` [Compound 15], below 100 nM.
Still for that read-out and setting: as for `COc1ccc2c(c1)-c1nn(C)cc1Cc1c(-c3nnc(C4COCCO4)o3)ncn1-2` (centres unmarked) [Compound 325], the figure is below 100 nM; as for `COc1ccc2c(c1)-c1nn(CCOC(F)(F)F)cc1Cc1c(-c3noc(C(C)(C)OC)n3)ncn1-2` [Compound 343], below 100 nM.
With `COc1ccc2c(c1)-c1c(cnn1Cc1ccccc1)Cc1c(-c3nc(C(C)C)no3)ncn1-2` [Compound 8], the Ki is 100 to 1000 nM.
Still for that read-out and setting: in the case of `CCOC(=O)c1cnc2n1CC(=O)N(C)c1cc(Cl)ccc1-2` [Compound 28] it was above 1000 nM; in that of `Cn1cc(-c2ncn3c2Cc2cn[nH]c2-c2cc(Cl)ccc2-3)cn1` [Compound 62], 100 to 1000 nM.
Take `Clc1ccc2c(c1)-c1nn(C3CCOC3)cc1Cc1c(-c3cnn(Cc4ccccc4)c3)ncn1-2` (centres unmarked) [Compound 274]: the Ki under setting [1] is below 100 nM.
`COc1ccc2c(c1)-c1nn(C)cc1Cc1c(-c3noc(CC4COC4)n3)ncn1-2` [Compound 366] yielded a Ki below 100 nM.
The same measure, in the same setting: in the case of `CC(C)n1cc2c(n1)-c1cc(Cl)ccc1-n1cnc(-c3cnn(Cc4ccccc4)c3)c1C2` [Compound 165] it was 100 to 1000 nM.
On to `COc1ccc2c(c1)-c1nn(CCOC(F)(F)F)cc1Cc1c(-c3noc(C4CCOCC4)n3)ncn1-2` [Compound 327], for which the Ki is below 100 nM.
On to `CC(C)c1noc(-c2cnc3n2Cc2nncn2-c2cc(Cl)ccc2-3)n1` [Compound 58], for which the Ki under setting [1] is above 1000 nM.
Take `COc1ccc2c(c1)-c1[nH]ncc1Cc1c(C3=N[C@H](c4ccc(Cl)cc4)CO3)ncn1-2` [Compound 24]: the Ki is below 100 nM.
In turn, `Cc1noc(-c2cnc3n2CC(=O)Nc2cc(Cl)ccc2-3)n1` [Compound 26] gave an inhibitory constant (Ki) under setting [1] above 1000 nM.
The same measure, in the same setting: as for `CC(C)c1noc(-c2cnc3n2CC(=O)Nc2cc(Cl)ccc2-3)n1` [Compound 27], the figure is above 1000 nM.
On to `CCn1cc2c(n1)-c1cc(OC)ccc1-n1cnc(-c3nc(C4CC4)no3)c1C2` [Compound 152], for which the inhibitory constant (Ki) is below 100 nM.
Molecule `COc1ccc2c(c1)-c1[nH]ncc1Cc1c(-c3cnn(C)c3)ncn1-2` [Compound 82] returned a Ki of 100 to 1000 nM.
The same measure, in the same setting: in the case of `COCCOCc1coc(-c2ncn3c2Cc2cn(C)nc2-c2cc(OC)ccc2-3)n1` [Compound 272] it was below 100 nM.
Under setting [1], `CC(C)C[C@@H]1COC(c2ncn3c2Cc2cnoc2-c2cc(Cl)ccc2-3)=N1` [Compound 68] registered a Ki above 1000 nM.
The molecule `COCCn1cc2c(n1)-c1cc(OC)ccc1-n1cnc(-c3noc(C4(OC)CC4)n3)c1C2` [Compound 339] returned a Ki below 100 nM.
`Cn1ncc2c1-c1cc(Cl)ccc1-n1cnc(-c3cnn(Cc4ccccc4)c3)c1C2` [Compound 164] showed a Ki below 100 nM.
Still for that read-out and setting: as for `Cn1cc2c(n1)-c1cc(Cl)ccc1-n1cnc(-c3noc(CN4CCCC4=O)n3)c1C2` [Compound 382], the figure is below 100 nM; as for `COc1ccc2c(c1)-c1nn(Cc3ccccc3F)cc1Cc1c(-c3nc(C(C)C)no3)ncn1-2` [Compound 43], below 100 nM.
